For assay [1], the system named is acetylated histone 3 [AcH3(lys9/14)] in Colo205 cells. In words: Histone H3 acetylation assay, ELISA approach. The assay is classed as cell-based. As to conditions: Homo sapiens, COLO 205, read-out: EC50, concentration effective for induction of acetylation of histone 3 ([AcH3(lys9/14)]) signal by 50%, 24 h treatment. A general note: ELISA stands for enzyme-linked immunosorbent assay.
Description: Histone H3 Acetylation Assay—ELISA Approach
An Enzyme Linked Immunosorbent Assay (ELISA) can be applied to detect and quantify the acetylated histone3 (AcH3) in the protein lysate obtained from cancer cell lines treated with the HDAC inhibitors.
The ELISA assay was developed to detect the level of AcH3 from the Colo205 colon cancer cell line treated with 10 μM HDAC inhibitory compounds. The protein lysates from untreated and treated Colo205 were obtained as previously described. The concentration of protein from lysed cells was determined using the BCA method (Sigma-Aldrich Pte Ltd).
The detection antibody used in this ELISA was donkey anti rabbit conjugated with peroxidase.
Colo205 cells were subsequently treated with HDAC inhibitors at different doses (in duplicates, 9 doses treatment, 4-fold dilutions from 100 μM). After treatment for 24 h, cells were lysed and the protein concentration was determined.
The ELISA plate (immulon 2HB plate, Biolaboratories Pte Ltd) was coated with 4 μg/ml of mouse monoclonal antibody against H3 at 4° C. overnight. […] The absorbance was measured at OD450 nm using Spectromax reader (Molecular Devices Corporation, Sunnyvale, Calif.).
The standard curve was drawn and the concentration of AcH3 [(Lys9/14), μg/ml] in a sample was determined using the Softmax software in Spectromax. The amount of AcH3 in a sample was calculated based on the following formula; […]

A further assay concerns the target HDAC3 (Homo sapiens (Human), UniProt O15379). Description: In vitro HDAC assay, HDAC3. Format: biochemical. The settings on record: Free base. On the procedure:
In Vitro HDAC Assay for Determination of IC50 Values
The assay has been carried out in 96 well format and the BIOMOL fluorescent-based HDAC activity assay has been applied. […] Flur de lys Developer was added and the reaction was incubated for 10 min. Briefly, deacetylation of the substrate sensitizes it to the developer, which then generates a fluorophore (symbol). The fluorophore is excited with 360 nm light and the emitted light (460 nm) is detected on a fluorometric plate reader (Tecan Ultra Microplate detection system, Tecan Group Ltd.).
The analytical software, Prism 3.0 has been used to generate IC50 from a series of data.

The structures appear in SMILES notation.

Chain of HDAC3 (O15379 whole entry): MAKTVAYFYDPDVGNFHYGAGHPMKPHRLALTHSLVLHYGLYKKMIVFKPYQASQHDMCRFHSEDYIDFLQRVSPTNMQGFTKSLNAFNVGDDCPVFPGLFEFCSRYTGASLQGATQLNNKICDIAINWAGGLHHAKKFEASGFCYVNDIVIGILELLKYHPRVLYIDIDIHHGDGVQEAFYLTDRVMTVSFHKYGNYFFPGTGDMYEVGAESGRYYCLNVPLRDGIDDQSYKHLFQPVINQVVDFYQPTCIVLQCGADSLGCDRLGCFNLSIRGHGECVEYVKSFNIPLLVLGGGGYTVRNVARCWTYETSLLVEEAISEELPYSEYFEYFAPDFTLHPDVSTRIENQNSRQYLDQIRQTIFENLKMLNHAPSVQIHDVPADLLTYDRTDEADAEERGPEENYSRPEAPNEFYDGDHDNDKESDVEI

For orientation: IC50 means the point on the concentration scale where inhibition reaches its midpoint. Read a low IC50 as inhibition by little substance. As to `COc1cc(Cn2c(CCc3ccccc3)nc3cc(/C=C/C(=O)NO)ccc32)cc(OC)c1OC` [Compound 2, N-Hydroxy-3-[1-(3,4,5-trimethoxybenzyl)-2-(2-phenyl-ethyl)-1H-benzimidazol-5-yl]-acrylamide], the EC50 in assay [1] amounted to 1700 nM. At HDAC3, this molecule displayed a half-inhibitory concentration (IC50) of 64 nM.
For `CN(C)CC(C)(C)Cn1c(CCc2ccccc2)nc2cc(/C=C/C(=O)NO)ccc21` [Compound 17, N-Hydroxy-3-[1-(3-Dimethylamino-2,2-dimethyl-proppyl)-2-phenethyl-1H-benzimidazol-5-yl]-acrylamide], the EC50 in assay [1] came out at 1100 nM. Besides, at HDAC3, the IC50 is 29 nM.

The values above are taken from US10201527B2, “Benzimidazole derivatives: preparation and pharmaceutical applications” (MEI PHARMA, INC., priority 2003, dated 2019).
